Laboratory results reported in PMC6853232, “Discovery and evaluation of novel synthetic 5-alkyl-4-oxo-4,5-dihydro-[1,2,4]triazolo[4,3-a]quinoxaline-1-carbox-amide derivatives as anti-inflammatory agents” (Journal of Enzyme Inhibition and Medicinal Chemistry, 2019).
“And” between values parts separate entries of the source, which are not always exact repeats. Identical values can stand only once.

Key:
[1] = tested on: LPS-induced NO production in RAW264.7 macrophages; test: Inhibition of LPS-induced NO production (Griess); assay type: cell-based, mouse
Experimental: (§1) The RAW 264.7 mouse macrophage cell line was obtained from the China Cell Line Bank (Beijing, China). Cells were cultured in complete medium (DMEM supplemented with 10% heat-inactivated FBS, 3 mM glutamine and antibiotics (100 U/mL penicillin and 100 U/mL streptomycin)) at 37 °C in a humidified incubator containing 5% CO2 and 95% air. Cells were treated with various concentrations of synthesised compounds for 30 min followed by stimulation with LPS (1 µg/L).
Nitrite, a stable product of nitric oxide, was used to assess NO production. To study the effects of the isolated compounds on NO production, RAW264.7 cells were plated at 1 × 10^5 cells/well in a 96-well microplate and incubated overnight. The cells were pre-treated with various concentrations of the test compounds (3, 7.5, 10, 15, 30 or 100 µM) and further co-cultured with 1 µg/mL LPS for 24 h. Un-pre-treated and un-stimulated RAW 264.7 cells were conducted as the blank control group. At different time points, the supernatant (50 µL) was assayed with NO assay kit. The culture supernatant (50 µL) was mixed with an equal volume of the Griess reagent (1% sulphanilamide, 0.1% N-[1-naphthy] ethylenediamine dihydrochloride) and NO production were determined at 540 nm with an ELISAplate reader.

[2] = tested on: iNOS protein expression in LPS-induced RAW 264.7 cells; test: Western blot, iNOS protein expression; assay type: cell-based, mouse
Experimental: The cells were collected and washed three times with ice-cold PBS. The cells were treated with a cell lysis buffer [50 mM Tris (pH 7.6), 150 mM NaCl, 5 mM EDTA (pH 8.0), 0.6% NP-40, 1 mM Na3VO4, 20 mM β-glycerophosphate, 1 mM phenylmethylsulfonyl fluoride, 2 mM p-nitrophenyl phosphate, and 1:25 Complete Mini Protease Inhibitor cocktail (Boehringer, Mannheim,Germany)] and kept on ice for 30 min. The cell lysates were centrifuged (12,000 g at 4 °C) for 5 min to obtain a cytosolic fraction. The protein concentration was determined by BCA protein assay kit (Beyotime, Haimen, China). Aliquots of the lysates were separated on 10% sodium dodecyl sulphate (SDS)-polyacrylamide gel electrophoresis (PAGE) and then electro blotted onto a polyvinylidene difluoride (PVDF) membrane. The blots were blocked with 5% (w/v) non-fat dry milk for 2 h at 37 °C, followed by incubation with specific primary antibody at 4 °C overnight. Blots were washed with Tween 20/Tris-buffered saline [TTBS, 20 mM Tris–HCl buffer, pH 7.6, containing 137 mM NaCl and 0.05% (vol/vol) Tween 20] and incubated with a peroxidase-conjugated secondary antibody for 1 h. Blots were again washed with TTBS and the immune active proteins were detected using ECL plus (Thermo, USA). […] Results are expressed as the relative ratio of the specific band compared with the internal reference.

[3] = MTT assay for cell viability; assay type: cell-based, mouse; details: mouse, RAW264.7 macrophage cells; 30 μM, 24 h, RAW264.7 cells
Experimental: as §1, with “Cells were treated with various concentrations of synthesised compounds for 30 min followed by stimulation with LPS (1 µg/L).” left out
Cell viability studies induced by synthesised compounds were evaluated by 3-(4,5-dimethylthiazol-2-yl)-2,5-diphenyltetrazolium bromide (MTT) assay. RAW264.7 macrophages were seeded in 96-well plates at a density of 5 × 10^5 cells/mL in complete medium and incubated for 24 h (100 µL/well). Then the cells were treated with different concentrations of synthesised compounds for 24 h. 150 µL MTT (5 g/L in PBS) was added to each well and the cells were further incubated for 4 h. The supernatant was removed and the cells were lysed with 150 µL/well DMSO. The optical density was measured at 570 nm on a microplate reader (Thermo Scientific, MA, USA).

[4] = tested on: carrageenan-induced paw oedema; test: Carrageenan-induced paw oedema model; assay type: in vivo, rats; details: 25 mg/kg p.o., n = 4
Text: The animal procedures were in strict accordance with the National Institutes of Healthy Guidelines for the Care and Use of Laboratory Animals (NIH Publication No. 85-23, revised 1996) and were approved by the Institutional Animal Care and Utilisation Committee of Yanbian University. Male albino rats weighing 280–300 gwere obtained from Animal Department of Yanbian University . They were kept in the animal house under standard condition of light and temperature with free access to food and water. The animals were randomly divided into five groups (control, D1, 6p, ibuprofen and celecoxib group) The groups with D1, 6p, ibuprofen and celecoxib were administered oral administration (p.o.) 25 mg/kg in a vehicle of 0.5% methylcellulose, respectively. The negative control group was treated with the same vehicle (0.5% methylcellulose). A solution of carrageenan (0.1 ml, 1.0% w/v in 0.9% of normal saline) was injected into the subplanter region of the left hind paw under light ether anaesthesia 1 h after oral administration (p.o.) of the test compound (at a dose level of 25 mg/kg body weight). The paw volume was measured at hourly interval for 5 h (0, 1, 3 and 5 h) and the percent inhibition of oedema was calculated using formula: %Inhibition=(Vt−Vo)control−(Vt−Vo)tested compound /(Vt−Vo)control×100 where, • Vo = volume of oedema at zero time interval. • Vt = volume of oedema at specific time interval.

In the case of COc1cc(Cn2c(=O)c3nnc(C(N)=O)n3c3ccccc32)cc(OC)c1OC [6p, 5-(3,4,5-trimethoxybenzyl)-4-oxo-4,5-dihydro-[1,2, 4]triazolo[4,3-a]quinoxaline-1-carboxamide], the “inhibition of NO production” value ([1]; 3 µM, p < .001 vs LPS alone) is reported as “significantly inhibit”, the inhibition at 10 µM ([1]; Mus musculus, RAW264.7, 10 µM, LPS 1 µg/mL, 24 h, read-out: NO inhibitory activity (% inhibition)) is reported as 38.8% and the “inhibition of iNOS protein expression” value ([2]; 30 µM, LPS 1 µg/mL, p < .001) is reported as 39.89%. For the same compound, the “iNOS protein expression, dose dependence” value ([2]; 7.5, 15 and 30 µM) was “dose-dependent manner”, the viability at 24 h, 30 µM [3] was 83.7 ± 1.53% and the “% of oedema inhibition (% mean ± SD)” value ([4]; 1 h) was 37.01 ± 8.45%. The “% of oedema inhibition (% mean ± SD)” value ([4]; 3 h, 25 mg/kg) was 50.83% and 50.83 ± 3.47%, the “% of oedema inhibition (% mean ± SD)” value ([4]; 5 h) was 38.24 ± 6.04% and the melting point was 286 to 288 °C.
